From patent US20210261512A1, “NOVEL COMPOUNDS” (INFLAZOME LIMITED, priority 2018, published 2021)

Experiments:
NLRP3 [1] = target: T1, NLRP3 (Homo sapiens, UniProt Q96P20); test: Human whole blood IL1β release assay; assay type: cell-based; details: LPS 1 μg/ml, nigericin 10 μM, IL-1β AlphaLisa, 10 μM top dose (Example 2: top dose of 30 μM), read-out: HWB IC50
Description: For systemic delivery, the ability to inhibit NLRP3 when the compounds are present within the bloodstream is of great importance. For this reason, the NLRP3 inhibitory activity of a number of compounds in human whole blood was investigated in accordance with the following protocol.
Human whole blood in sodium-heparin or lithium-heparin tubes was obtained from healthy donors from a volunteer donor panel. • 1. Plate out 80 μl of whole blood containing 1 μg/ml of LPS in 96-well, clear bottom cell culture plate (Corning #3585) • 2. Add 10 μl compound (8 points half-log dilution with 10 μM top dose, unless stated otherwise) or vehicle (DMSO 0.1% FAC) to the appropriate wells • 3. Incubate for 3 hrs at 37° C., 5% CO2 • 4. Add 10 μl nigericin (Sigma #N7143) (10 μM FAC) to all wells • 5. Incubate for 1 hr at 37° C., 5% CO2 • 6. At the end of the incubation period, spin plates at 300×g for 5 mins to pellet cells and remove 20 μl of supernatant and add to 96-well v-bottom plates for IL-1β analysis (note: these plates containing the supernatants can be stored at −80° C. to be analysed at a later date) • 7. IL-1β was measured according to the manufacturer protocol (Perkin Elmer-AlphaLisa IL-1 Kit AL220F-5000) • 8. IC50 data is fitted to a non-linear regression equation (log inhibitor vs response-variable slope 4-parameters)

NLRP3 [2] = target: T1, NLRP3; test: THP-1 cells pyroptosis assay; assay type: cell-based; parameters: Seed THP-1 cells (25,000 cells/well) containing 1.0 μg/ml LPS; host or cells: THP-1; details: LPS 1.0 μg/ml, nigericin 5 μM, resazurin readout, 10 μM top dose (Example 2: top dose of 30 μM)
In short: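 THP-1 cells (25,000/well) primed with 1 μg/ml LPS in serum-free RPMI, treated with compound (8-point dilution, 10 μM top unless stated; 0.1% DMSO) 3 h at 37°C, then nigericin 5 μM 1 h. Viability read by resazurin (100 μM, 1-2 h) fluorescence; IC50 from 4-parameter fit.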

T1 sequence (Q96P20 whole entry): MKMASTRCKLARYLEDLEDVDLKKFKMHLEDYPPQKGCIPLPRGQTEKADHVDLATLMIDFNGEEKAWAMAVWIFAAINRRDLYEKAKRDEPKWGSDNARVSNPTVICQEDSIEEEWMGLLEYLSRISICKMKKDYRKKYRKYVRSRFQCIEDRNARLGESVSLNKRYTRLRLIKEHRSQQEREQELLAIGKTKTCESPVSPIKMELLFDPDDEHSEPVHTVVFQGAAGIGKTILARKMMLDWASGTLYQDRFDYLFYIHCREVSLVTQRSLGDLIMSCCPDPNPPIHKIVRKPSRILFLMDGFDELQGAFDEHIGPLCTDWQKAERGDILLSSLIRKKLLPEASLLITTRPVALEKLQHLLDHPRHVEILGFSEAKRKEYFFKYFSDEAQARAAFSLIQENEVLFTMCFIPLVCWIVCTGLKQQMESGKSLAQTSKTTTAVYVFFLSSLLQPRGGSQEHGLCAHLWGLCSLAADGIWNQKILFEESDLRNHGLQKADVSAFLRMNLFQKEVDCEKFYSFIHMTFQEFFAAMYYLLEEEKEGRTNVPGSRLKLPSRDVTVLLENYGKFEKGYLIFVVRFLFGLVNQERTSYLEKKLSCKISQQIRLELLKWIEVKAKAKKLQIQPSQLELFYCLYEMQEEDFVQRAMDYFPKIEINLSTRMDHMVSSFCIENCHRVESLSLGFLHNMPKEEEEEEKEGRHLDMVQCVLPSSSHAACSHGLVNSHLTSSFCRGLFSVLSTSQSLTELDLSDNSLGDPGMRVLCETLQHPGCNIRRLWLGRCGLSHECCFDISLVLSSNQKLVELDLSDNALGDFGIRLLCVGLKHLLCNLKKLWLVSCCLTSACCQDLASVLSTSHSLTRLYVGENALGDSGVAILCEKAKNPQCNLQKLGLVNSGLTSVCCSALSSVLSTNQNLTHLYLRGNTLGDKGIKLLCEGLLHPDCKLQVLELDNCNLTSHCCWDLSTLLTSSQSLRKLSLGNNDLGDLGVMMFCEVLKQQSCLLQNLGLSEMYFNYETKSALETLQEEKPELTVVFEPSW

Compound	IC50 (NLRP3 [1]) [µM]	IC50 (NLRP3 [2]) [µM]
[2H]C([2H])([2H])Oc1cc(-c2ccc3c(c2Nc2nnc(S(=O)(=O)N4CC5(CCN(C)C5)C4)[nH]2)CCO3)ccn1 [Example 195, N-(5-(2-(methoxy-d)pyridin-4-yl)-2,3-dihydrobenzofuran-4-yl)-5-((6-methyl-2,6-diazaspiro[3-4]octan-2-yl)sulfonyl)-4H-1,2,4-triazol-3-amine]	≤ 0.5	≤ 0.5
COc1cc(-c2c(C)cc3c(c2Nc2nnc(S(=O)(=O)c4ccccc4)[nH]2)CCC3)ccn1 [Example 319, N-(5-(2-methoxypyridin-4-yl)-6-methyl-2,3-dihydro-1H-inden-4-yl)-5-(phenylsulfonyl)-4H-1,2,4-triazol-3-amine]	≤ 10	≤ 0.5
Cc1cc(-c2ccc3c(c2Nc2nnc(S(=O)(=O)N4CCC(N(C)C)CC4)[nH]2)CCC3)ccn1 [Example 221, N,N-dimethyl-1-((5-((5-(2-methylpyridin-4-yl)-2,3-dihydro-1H-inden-4-yl)amino)-4H-1,2,4-triazol-3-yl)sulfonyl)piperidin-4-amine]	≤ 5	≤ 0.5
CC(C)c1cc(F)cc(-c2ccncc2)c1Oc1nnc(S(=O)(=O)N2CCC(CN(C)C)C2)[nH]1 (stereo not shown) [Example 152, 1-(1-((5-(4-fluoro-2-isopropyl-6-(pyridin-4-yl)phenoxy)-4H-1,2,4-triazol-3-yl)sulfonyl)pyrrolidin-3-yl)-N,N-dimethylmethanamine]	≤ 5	≤ 5
CN(C)C1CCN(S(=O)(=O)c2nnc(Nc3c(-c4ccnc(OC(F)F)c4)ccc4c3CCC4)[nH]2)CC1 [Example 222, 1-((5-((5-(2-(difluoromethoxy)pyridin-4-yl)-2,3-dihydro-1H-inden-4-yl)amino)-4H-1,2,4-triazol-3-yl)sulfonyl)-N,N-dimethylpiperidin-4-amine]	≤ 1	≤ 0.5

Now from value to compound:

IC50 (NLRP3 [1]) [µM]	IC50 (NLRP3 [2]) [µM]	Compound
≤ 10	≤ 5	CC(C)n1ccc(S(=O)(=O)c2nnc(Nc3c(-c4ccncc4)cc(F)c4c3CCC4)[nH]2)n1 [Example 36, N-(7-fluoro-5-(pyridin-4-yl)-2,3-dihydro-1H-inden-4-yl)-5-((1-isopropyl-1H-pyrazol-3-yl)sulfonyl)-4H-1,2,4-triazol-3-amine]
≤ 5	≤ 0.5	CN(C)CCn1ccc(S(=O)(=O)c2nnc(Nc3c4c(cc5c3CCC5)CCC4)[nH]2)n1 [Example 349, 5-((1-(2-(dimethylamino)ethyl)-1H-pyrazol-3-yl)sulfonyl)-N-(1,2,3,5,6,7-hexahydro-s-indacen-4-yl)-4H-1,2,4-triazol-3-amine]
≤ 5	≤ 1	O=S(=O)(c1nnc(Nc2c3c(cc4c2CCC4)CCC3)[nH]1)N1CCC(N2CCCC2)CC1 [Example 124, N-(1,2,3,5,6,7-hexahydro-s-indacen-4-yl)-5-((4-(pyrrolidin-1-yl)piperidin-1-yl)sulfonyl)-4H-1,2,4-triazol-3-amine]
≤ 10	≤ 1	CN(C)C(=O)C1CCN(S(=O)(=O)c2nnc(Nc3c4c(cc5c3CCC5)CCC4)[nH]2)C1 (stereo not shown) [Example 139, 1-((5-((1,2,3,5,6,7-hexahydro-s-indacen-4-yl)amino)-4H-1,2,4-triazol-3-yl)sulfonyl)-N,N-dimethylpyrrolidine-3-carboxamide]
≤ 5	≤ 1	CC(C)N1CCN(S(=O)(=O)c2nnc(Nc3c4c(cc5c3CCC5)CCC4)[nH]2)CC1 [Example 117, N-(1,2,3,5,6,7-hexahydro-s-indacen-4-yl)-5-((4-isopropylpiperazin-1-yl)sulfonyl)-4H-1,2,4-triazol-3-amine]
≤ 10	≤ 1	COC(C)(C)[C@H]1CCN(S(=O)(=O)c2nnc(Nc3c4c(cc5c3CCC5)CCC4)[nH]2)C1 [Example 347, (S)-N-(1,2,3,5,6,7-hexahydro-s-indacen-4-yl)-5-((3-(2-methoxypropan-2-yl)pyrrolidin-1-yl)sulfonyl)-4H-1,2,4-triazol-3-amine]
